Assay results taken from patent US8772250B2, “Compositions and methods for treating ischemia and ischemia-reperfusion injury” (Ischemix, LLC, priority 2010, dated 2014).
Read-outs that look alike come from different tables or passages of the source.

Assay: Pharmacokinetic evaluation in humans
Format: in vivo
Conditions: human; for clearance / Cmax / Vd / half-life / AUC(0-t) / AUC(0-inf): plasma
Description: Plasma and urine RLip-EA-OH concentrations were measured at BASi, Inc. (West Lafayette, Ind.) using a LC/MS/MS method with positive turbo ion spray, in the multiple reaction-monitoring mode. The quantifiable range for human plasma was 1.00 to 500 ng/mL and QC samples were included at 3.00, 75.0 and 375 ng/mL.
The PK population included subjects who received RLip-EA-OH and had ≧1 post-dose PK measurement. […] Plasma samples from 24 subjects (6 RLip-EA-OH subjects per cohort) were analyzed (Tables 16 and 17).

SMILES: C[C@H](NC(=O)[C@H](CCC(=O)O)NC(=O)CCCC[C@@H]1CCSS1)C(=O)O [RLip-EA-OH, N-(R)-lipoyl-L-glutamyl-L- alanine]
- clearance (150 mg, compartmental, read-out: CL, Median (converted)): 363 mL/min
- clearance (150 mg, compartmental, read-out: CL, Minimum, maximum): 260 to 512 mL/min
- Cmax (150 mg, compartmental, read-out: Estimated Cmax, Mean (SD)): 18100 ng/mL
- Cmax (150 mg, compartmental, read-out: Estimated Cmax, Median): 18400 ng/mL
- Cmax (150 mg, compartmental, read-out: Estimated Cmax, Minimum, maximum): 14200 to 20600 ng/mL
- Vd (150 mg, compartmental, read-out: Vss, Mean (SD)): 13 L
- Vd (150 mg, compartmental, read-out: Vss, Median): 13 L
- Vd (150 mg, compartmental, read-out: Vss, Minimum, maximum): 9 to 17 L
- half-life (150 mg, compartmental, read-out: t1/2, Mean (SD) (converted)): 1.8 h
- half-life (150 mg, compartmental, read-out: t1/2, Median (converted)): 1.4 h
- half-life (150 mg, compartmental, read-out: t1/2, Minimum, maximum): 1.1 to 3.3 h
- AUC(0-t) (150 mg, noncompartmental, read-out: AUC0-t, Mean (SD)): 6980 ng·h/mL
- AUC(0-t) (150 mg, noncompartmental, read-out: AUC0-t, Median): 6900 ng·h/mL
- AUC(0-t) (150 mg, noncompartmental, read-out: AUC0-t, Minimum, maximum): 4970 to 9330 ng·h/mL
- AUC(0-inf) (150 mg, noncompartmental, read-out: AUCinf, Mean (SD)): 6990 ng·h/mL
- AUC(0-inf) (150 mg, noncompartmental, read-out: AUCinf, Median): 6920 ng·h/mL
- AUC(0-inf) (150 mg, noncompartmental, read-out: AUCinf, Minimum, maximum): 4980 to 9340 ng·h/mL
- clearance (150 mg, noncompartmental, read-out: CL, Mean (SD) (converted)): 372 mL/min
- clearance (150 mg, noncompartmental, read-out: CL, Median (converted)): 363 mL/min
- clearance (150 mg, noncompartmental, read-out: CL, Minimum, maximum): 268 to 502 mL/min
- Cmax (150 mg, noncompartmental, read-out: Cmax, Mean (SD)): 17100 ng/mL
- Cmax (150 mg, noncompartmental, read-out: Cmax, Median): 17000 ng/mL
- Cmax (150 mg, noncompartmental, read-out: Cmax, Minimum, maximum): 14900 to 20000 ng/mL
- Vd (150 mg, noncompartmental, read-out: Vss, Mean (SD)): 13.6 L
- Vd (150 mg, noncompartmental, read-out: Vss, Median): 13.2 L
- Vd (150 mg, noncompartmental, read-out: Vss, Minimum, maximum): 9.9 to 16.6 L
- half-life (150 mg, noncompartmental, read-out: t1/2, Mean (SD) (converted)): 1.23 h
- half-life (150 mg, noncompartmental, read-out: t1/2, Median (converted)): 1.25 h
- half-life (150 mg, noncompartmental, read-out: t1/2, Minimum, maximum): 0.97 to 1.52 h
- AUC(0-inf) (300 mg, compartmental, read-out: AUCinf, Mean (SD)): 16400 ng·h/mL
- AUC(0-inf) (300 mg, compartmental, read-out: AUCinf, Median): 16400 ng·h/mL
- AUC(0-inf) (300 mg, compartmental, read-out: AUCinf, Minimum, maximum): 11500 to 22600 ng·h/mL
- clearance (300 mg, compartmental, read-out: CL, Mean (SD) (converted)): 323 mL/min
- clearance (300 mg, compartmental, read-out: CL, Median (converted)): 305 mL/min
- clearance (300 mg, compartmental, read-out: CL, Minimum, maximum): 222 to 435 mL/min
- Cmax (300 mg, compartmental, read-out: Estimated Cmax, Mean (SD)): 46300 ng/mL
- Cmax (300 mg, compartmental, read-out: Estimated Cmax, Median): 43400 ng/mL
- Cmax (300 mg, compartmental, read-out: Estimated Cmax, Minimum, maximum): 31000 to 70100 ng/mL
- Vd (300 mg, compartmental, read-out: Vss, Mean (SD)): 11 L
- Vd (300 mg, compartmental, read-out: Vss, Median): 11 L
- Vd (300 mg, compartmental, read-out: Vss, Minimum, maximum): 8 to 16 L
- half-life (300 mg, compartmental, read-out: t1/2, Mean (SD) (converted)): 1.5 h
- half-life (300 mg, compartmental, read-out: t1/2, Median (converted)): 1.2 h
- half-life (300 mg, compartmental, read-out: t1/2, Minimum, maximum): 1 to 2.5 h
- AUC(0-t) (300 mg, noncompartmental, read-out: AUC0-t, Mean (SD)): 16500 ng·h/mL
- AUC(0-t) (300 mg, noncompartmental, read-out: AUC0-t, Median): 16500 ng·h/mL
- AUC(0-t) (300 mg, noncompartmental, read-out: AUC0-t, Minimum, maximum): 11600 to 23100 ng·h/mL
- AUC(0-inf) (300 mg, noncompartmental, read-out: AUCinf, Mean (SD)): 16500 ng·h/mL
- AUC(0-inf) (300 mg, noncompartmental, read-out: AUCinf, Median): 16500 ng·h/mL
- AUC(0-inf) (300 mg, noncompartmental, read-out: AUCinf, Minimum, maximum): 11600 to 23100 ng·h/mL
- clearance (300 mg, noncompartmental, read-out: CL, Mean (SD) (converted)): 322 mL/min
- clearance (300 mg, noncompartmental, read-out: CL, Median (converted)): 303 mL/min
- clearance (300 mg, noncompartmental, read-out: CL, Minimum, maximum): 217 to 430 mL/min
- Cmax (300 mg, noncompartmental, read-out: Cmax, Mean (SD)): 42200 ng/mL
- Cmax (300 mg, noncompartmental, read-out: Cmax, Median): 42200 ng/mL
- Cmax (300 mg, noncompartmental, read-out: Cmax, Minimum, maximum): 32000 to 58100 ng/mL
- Vd (300 mg, noncompartmental, read-out: Vss, Mean (SD)): 11.7 L
- Vd (300 mg, noncompartmental, read-out: Vss, Median): 11.1 L
- Vd (300 mg, noncompartmental, read-out: Vss, Minimum, maximum): 8.9 to 15.1 L
- half-life (300 mg, noncompartmental, read-out: t1/2, Mean (SD) (converted)): 1.45 h
- half-life (300 mg, noncompartmental, read-out: t1/2, Median (converted)): 1.14 h
- half-life (300 mg, noncompartmental, read-out: t1/2, Minimum, maximum): 0.99 to 2.35 h
- clearance (300 mg, read-out: CL (converted)): 322 mL/min
- half-life (300 mg, read-out: mean terminal-phase t1/2 (converted)): 1.45 h
- AUC(0-inf) (across doses 20 to 300 mg, read-out: AUCinf): 583 to 16500 ng·h/mL
- half-life (at the mg dose, read-out: mean terminal-phase t1/2 (converted)): 0.86 h
- Vd (decreased with increasing dose, read-out: Vss): 12 to 18 L
- Vd (read-out: volume of distribution of the central compartment (Vc)): ~6 L
- V1, Mean (SD) (20 mg, compartmental): 6.61 (3.20) L
- V1, Median (20 mg, compartmental): 6.13 L
- % Excreted Unchanged, Mean (SD) (20 mg, noncompartmental): 28.5 (9.6) %
- % Excreted Unchanged, Median (20 mg, noncompartmental): 31.0%
- V1, Mean (SD) (60 mg, compartmental): 6.62 (1.65) L
- V1, Median (60 mg, compartmental): 6.69 L
- % Excreted Unchanged, Mean (SD) (60 mg, noncompartmental): 39.1 (4.0) %
- % Excreted Unchanged, Median (60 mg, noncompartmental): 40.6%
- V1, Mean (SD) (150 mg, compartmental): 6.09 (1.42) L
- V1, Median (150 mg, compartmental): 5.86 L
- % Excreted Unchanged, Mean (SD) (150 mg, noncompartmental): 32.5 (13.9) %
- % Excreted Unchanged, Median (150 mg, noncompartmental): 33.3%
- V1, Mean (SD) (300 mg, compartmental): 4.91 (1.56) L
- V1, Median (300 mg, compartmental): 5.59 L
- % Excreted Unchanged, Mean (SD) (300 mg, noncompartmental): 43.6 (8.8) %
- % Excreted Unchanged, Median (300 mg, noncompartmental): 46.3%
